Source: patent US4598080A, “Certain-2-methyl-6-{4-[1-phenyl-1-hydroxypropyl]-phenoxymethyl}pyridines which inhibit microsonal monoxygenase systems in liver” (Richter Gedeon Vegyeszeti Gyar Rt, priority 1982, dated 1986)

Tests used:
[1] = from H. Ippen: Index Pharmacorum (1970); cited from earlier work
hexobarbital oxidase = assay: hexobarbital narcosis period (change of hexobarbital oxidase activity in vivo); design: species or system rat; settings: mean ± S.E.; for Hexobarbital Narcosis period in % of the control, 1 hour: 1 hour after administration; for Hexobarbital Narcosis period in % of the control (24 hours): 24 hours after administration
Description: The enzyme inhibiting activity of the new compounds was tested in vivo, by measuring the change of hexobarbital oxidase activity. Female Hann.-Wistarrats, each weighing 50 to 60 g. were treated orally with a single 40 mg./kg. dose of the test compound. 1 and 24 hours after the administration of the active ingredient, the animals were narcotized with a 60 mg./kg. i.v. dosage of hexobarbital sodium, and the time elapsed until complete wakening was measured (Noordhoek, J.: Eur. J. Pharmacol., 3, 242 (1968)). The data were recorded, and the mean values, the standard errors, as well as the percentage increase with respect to the controls were calculated for each group. […] The hexobarbital concentration of the plasm, measured on the instant wakening, was the same for both the treated and the control animals, and thus the increase of narcosis period was not due to a certain central nervous interaction (Jori, A. et al.: Biochem. Pharmacol., 19, 2687 (1970)).

aminopyrine demethylase = aminopyrine demethylase activity of liver after oral treatment; format: in vivo, rat; settings: female H.Wistar rats, single 40 mg./kg. oral dose, liver taken two hours after treatment, results in % of the control (control = 260.7 ± 11.2 nmoles/g/min), mean ± S.E., the values are: activity
Description: The enzyme inhibiting activity of the compounds of the formula (I) was further tested by determining the activity of the polysubstrate monooxygense enzyme system of the liver after treatment with the placebo and the compounds according to the invention, respectively. Female H.Wistar rats weighing 50 to 60 g. each were administered a single 40 mg./kg. dose of the test compounds, orally. Two hours after treatment the animals were decapitated and the livers were eliminated. After rinsing with a physiological saline solution at 0° C., drying and weighing, the livers were homogenized in a 0.1 molar Tris-HCl buffer (pH=7.2), containing 1.15% of potassium chloride at 0° C., centrifuged at 9000 g for 20 minutes, and the supernatant (postmitochondrial fraction) was used for further investigations. The microsomal fraction was prepared following the method developed by Cinti D. L. et al.: Biochem. Pharmacol., 21, 3249 (1972). The activity of aniline hydroxylase was determined from the velocity of p-amino-phenol formation according to Chabra R. S. et al.: Toxicol. Appl. Pharmacol., 22, 50 ( 1972). The activity of the aminopyrine demethylase was measured from the amount of the formaldehyde formed, according to Gourlay G. K. et al.: Biochem. Pharmacol., 27, 965 (1978). The control groups were treated with a placebo.

acute toxicity = settings: rat, in vivo, po; H-Wistar rats of both sexes, single 500 mg./kg. p.o., observed for 14 days; read-out: Perished animals (%)
Description: The acute toxicity of the compounds of the formula (I) was tested on H-Wistar rats of both sexes, weighing 160 to 180 g. each. The compounds were administered in a single 500 mg./kg. dose, orally.

[2] = reference compound, dose 100 mg/kg
[3] = female Hann.-Wistar rats, single 40 mg./kg. oral dose, hexobarbital sodium 60 mg./kg. i.v.

| SMILES | anticonvulsive side effect [1] | Hexobarbital Narcosis period in % of the control, 1 hour (hexobarbital oxidase; [2]) | Hexobarbital Narcosis period in % of the control (24 hours) (hexobarbital oxidase; [2]) | Hexobarbital Narcosis period in % of the control, 1 hour (hexobarbital oxidase; [3]) | Hexobarbital Narcosis period in % of the control (24 hours) (hexobarbital oxidase; [3]) | Aminopyrine demethylase (aminopyrine demethylase) [%] | mortality at 336 h (acute toxicity) [%] |
| --- | --- | --- | --- | --- | --- | --- | --- |
| CCCC(C(=O)OCCN(CC)CC)(c1ccccc1)c1ccccc1 [Proadiphene, (2-diethylaminoethyl)-α,α-diphenyl valerate, reference compound] | exerted an anticonvulsive side effect | 241 ± 9.6 % of the control | 44 ± 5.7 % of the control | – | – | – | – |
| CCC(O)(c1ccc(Cl)cc1)c1ccc(OCc2cccc(C)n2)cc1 (centres unmarked) [A, 2-methyl-6-{4-[1-(4-chlorophenyl)-1-hydroxypropyl]-phenoxymethyl}-pyridine] | – | – | – | 259 ± 11.4 % of the control | 155 ± 9.6 % of the control | 55 ± 4.4 | 0 |
| CCC(O)(c1ccc(OCc2cccc(C)n2)cc1)c1cc(C)ccc1C (centres unmarked) [B, 2-methyl-6-{4-[1-(2,5-dimethylphenyl)-1-hydroxypropyl]-phenoxymethyl}-pyridine] | – | – | – | 135 ± 6.7 % of the control | 174 ± 7.2 % of the control | 63 ± 4.4 | 0 |
